The values that follow come from ChEMBL document CHEMBL4418299, “Compounds useful as csf1 modulators” (2016).

The target in assay [1] is Macrophage colony-stimulating factor 1 receptor (Homo sapiens, UniProt P07333). In words: Displacement of kinase tracer 236 from recombinant human His-tagged CSF1R cytoplasmic domain (538 to 910 residues) expressed in baculovirus-infected insect cells measured after 5 hrs by TR-FRET based LanthaScreen assay. (Time-resolved FRET reads energy transfer from a long-lived donor to a nearby acceptor.)

The target in assay [2] is Vascular endothelial growth factor receptor 2 (Homo sapiens, UniProt P35968). The assay is described as follows: Displacement of kinase tracer 236 from recombinant human His-tagged KDR cytoplasmic domain (789 to 1356 residues) expressed in baculovirus-infected insect cells measured after 5 hrs by TR-FRET based LanthaScreen assay.
Sequence of Vascular endothelial growth factor receptor 2 (P35968 whole entry, the tested form may be a part): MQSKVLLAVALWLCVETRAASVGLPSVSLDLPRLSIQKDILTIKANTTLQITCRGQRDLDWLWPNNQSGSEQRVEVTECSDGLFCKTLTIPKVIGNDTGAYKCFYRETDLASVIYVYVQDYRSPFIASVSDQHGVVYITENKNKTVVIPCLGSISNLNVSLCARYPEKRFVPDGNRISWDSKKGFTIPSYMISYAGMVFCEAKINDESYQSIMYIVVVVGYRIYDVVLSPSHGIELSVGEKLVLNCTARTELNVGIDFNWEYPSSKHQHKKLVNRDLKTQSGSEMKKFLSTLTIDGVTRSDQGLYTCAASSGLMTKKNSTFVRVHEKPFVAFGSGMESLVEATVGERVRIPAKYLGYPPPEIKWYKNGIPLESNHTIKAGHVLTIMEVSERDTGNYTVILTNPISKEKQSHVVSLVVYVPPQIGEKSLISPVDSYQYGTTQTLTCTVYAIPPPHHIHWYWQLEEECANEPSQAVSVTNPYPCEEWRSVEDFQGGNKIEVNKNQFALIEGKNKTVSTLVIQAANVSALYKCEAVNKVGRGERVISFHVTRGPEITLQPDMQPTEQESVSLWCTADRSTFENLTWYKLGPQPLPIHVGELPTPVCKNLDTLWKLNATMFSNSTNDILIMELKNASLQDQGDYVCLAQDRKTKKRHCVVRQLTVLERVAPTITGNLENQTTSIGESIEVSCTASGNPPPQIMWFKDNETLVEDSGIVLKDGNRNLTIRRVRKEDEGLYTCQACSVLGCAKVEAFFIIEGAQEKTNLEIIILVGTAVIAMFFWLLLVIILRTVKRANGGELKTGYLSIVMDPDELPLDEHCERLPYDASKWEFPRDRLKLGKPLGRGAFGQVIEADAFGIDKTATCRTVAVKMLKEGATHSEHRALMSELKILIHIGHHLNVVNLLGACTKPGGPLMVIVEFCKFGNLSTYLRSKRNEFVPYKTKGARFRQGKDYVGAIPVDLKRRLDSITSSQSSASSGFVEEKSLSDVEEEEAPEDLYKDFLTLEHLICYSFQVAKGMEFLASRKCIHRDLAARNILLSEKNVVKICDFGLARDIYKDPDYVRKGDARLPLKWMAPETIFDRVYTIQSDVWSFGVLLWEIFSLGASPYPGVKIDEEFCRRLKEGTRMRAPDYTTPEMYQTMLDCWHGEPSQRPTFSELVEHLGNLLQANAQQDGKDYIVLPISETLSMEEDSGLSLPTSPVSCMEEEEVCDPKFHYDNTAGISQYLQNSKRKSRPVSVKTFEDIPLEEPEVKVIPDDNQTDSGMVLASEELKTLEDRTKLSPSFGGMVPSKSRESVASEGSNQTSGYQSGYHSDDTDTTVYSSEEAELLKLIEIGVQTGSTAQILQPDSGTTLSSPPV

Sequence of Macrophage colony-stimulating factor 1 receptor (P07333 whole entry, the tested form may be a part): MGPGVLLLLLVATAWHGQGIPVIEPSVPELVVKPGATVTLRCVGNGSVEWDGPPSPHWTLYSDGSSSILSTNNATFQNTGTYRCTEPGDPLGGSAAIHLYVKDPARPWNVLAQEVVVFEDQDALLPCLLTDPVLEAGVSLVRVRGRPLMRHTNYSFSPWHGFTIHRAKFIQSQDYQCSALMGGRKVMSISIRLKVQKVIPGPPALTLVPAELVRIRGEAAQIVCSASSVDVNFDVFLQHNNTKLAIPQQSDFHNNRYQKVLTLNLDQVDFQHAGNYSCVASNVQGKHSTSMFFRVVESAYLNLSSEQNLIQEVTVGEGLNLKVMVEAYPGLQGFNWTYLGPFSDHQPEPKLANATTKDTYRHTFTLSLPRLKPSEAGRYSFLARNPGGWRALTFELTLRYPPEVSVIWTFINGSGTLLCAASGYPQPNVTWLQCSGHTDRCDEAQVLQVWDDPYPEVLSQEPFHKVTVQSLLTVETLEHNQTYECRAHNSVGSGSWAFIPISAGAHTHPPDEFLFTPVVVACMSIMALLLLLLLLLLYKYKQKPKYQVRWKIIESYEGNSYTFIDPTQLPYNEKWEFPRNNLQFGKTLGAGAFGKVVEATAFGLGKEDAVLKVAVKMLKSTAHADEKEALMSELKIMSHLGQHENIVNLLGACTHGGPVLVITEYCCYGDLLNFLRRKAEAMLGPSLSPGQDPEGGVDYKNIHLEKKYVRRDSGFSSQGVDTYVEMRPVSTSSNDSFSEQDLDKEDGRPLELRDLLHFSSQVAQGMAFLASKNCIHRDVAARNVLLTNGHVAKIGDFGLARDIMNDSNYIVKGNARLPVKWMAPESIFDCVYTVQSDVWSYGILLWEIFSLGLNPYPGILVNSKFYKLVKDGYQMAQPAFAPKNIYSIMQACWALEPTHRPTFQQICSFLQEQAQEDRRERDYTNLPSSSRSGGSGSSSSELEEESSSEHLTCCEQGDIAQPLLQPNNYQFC

By IC50 is commonly meant the point on the concentration scale where inhibition reaches its midpoint. For `Nc1ncnc2c3c(n(-c4ccc(NC(=O)Cc5cc(C(F)(F)F)ccc5F)cc4)c12)CCC3`, the half-maximal inhibitory concentration (IC50) was below 10 nM in assay [1] and above 200 nM in assay [2].
On to `Nc1ncnc2c3c(n(-c4ccc(NC(=O)Cc5cc(C(F)(F)F)ccc5F)c(C(F)(F)F)c4)c12)CCC3`, for which the 50% inhibitory concentration (IC50) in assay [1] is above 200 nM.
On to `Nc1ncnc2c3c(n(-c4ccc(NC(=O)Cc5ccc(Cl)cc5F)cc4)c12)CCC3`, for which the IC50 in assay [1] is below 10 nM; in assay [2], above 200 nM.
Consider `Nc1ncnc2c3c(n(-c4ccc(NC(=O)Cc5ccnc(C(F)(F)F)c5)cc4)c12)CCC3`, for which the IC50 in assay [1] was below 10 nM; in assay [2] it was above 200 nM.
Regarding `COc1ccc(CC(=O)Nc2ccc(-n3c4c(c5ncnc(N)c53)CCC4)cc2OC)c(F)c1`, the IC50 in assay [1] is below 10 nM; in assay [2], above 200 nM.
For `COc1cc(-n2c3c(c4ncnc(N)c42)CCC3)ccc1CC(=O)Nc1ccc(C(C)(C)O)nc1`, in assay [1], the half-maximal inhibitory concentration (IC50) was below 10 nM.
Regarding `COc1ncc(NC(=O)Cc2ccc(-n3c4c(c5ncnc(N)c53)CCC4)cc2)cc1F`, the 50% inhibitory concentration (IC50) in assay [1] is below 10 nM.
As to `COc1cc(-n2c3c(c4ncnc(N)c42)CCC3)ccc1CC(=O)Nc1cnn(C)c1`, the IC50 in assay [1] is above 200 nM.
As for `COc1cc(-n2c3c(c4ncnc(N)c42)CCC3)ccc1CC(=O)Nc1ccc(C2(O)COC2)cc1`, in assay [1], the IC50 fell in the range of 10 to 200 nM.
As to `Nc1ncnc2c3c(n(-c4ccc(NC(=O)Cc5ccc(F)cc5)cc4)c12)CCC3`, the IC50 in assay [1] is below 10 nM; in assay [2] it was above 200 nM.
`Cn1ccc2cc(CC(=O)Nc3ccc(-n4c5c(c6ncnc(N)c64)COC5)cc3)ccc21`: the IC50 was 10 to 200 nM in assay [1] and above 200 nM in assay [2].
As for `COc1cc(-n2c3c(c4ncnc(N)c42)CCC3)ccc1CC(=O)Nc1ccc2c(c1)COC2(C)C`, in assay [1], the IC50 is below 10 nM.
Regarding `Cn1ccc2cc(CC(=O)Nc3ccc(-n4c5c(c6ncnc(N)c64)CCC5)cc3)ccc21`, the IC50 in assay [1] was 4 nM; in assay [2], above 200 nM.
Consider `COc1cc(CC(=O)Nc2ccc(-n3c4c(c5ncnc(N)c53)CCC4)cc2)ccc1F`, for which the half-maximal inhibitory concentration (IC50) in assay [1] was 10 to 200 nM; in assay [2] it was above 200 nM.
Consider `Nc1ncnc2c3c(n(-c4ccc(NC(=O)Cc5cccc(OC(F)(F)F)c5)cc4)c12)CCC3`, for which the IC50 in assay [1] is below 10 nM; in assay [2], above 200 nM.
Regarding `Nc1ncnc2c3c(n(-c4ccc(NC(=O)Cc5ccn(C(F)F)n5)cc4)c12)CCC3`, the 50% inhibitory concentration (IC50) in assay [1] fell in the range of 10 to 200 nM.
With `COc1ccc(CC(=O)Nc2ccc(-n3c4c(c5ncnc(N)c53)CCC4)cc2)c(OC)c1`, the results for the IC50 in assay [1] and in assay [2] were below 10 nM and above 200 nM, respectively.
Taken in the same sequence, the figures for `COc1cccc(CC(=O)Nc2ccc(-n3c4c(c5ncnc(N)c53)CCC4)cc2)c1` were below 10 nM and above 200 nM.
Consider `COc1cc(-n2c3c(c4ncnc(N)c42)CCC3)ccc1CC(=O)Nc1ccc(C(C)(C)O)cn1`, for which the IC50 in assay [1] lay in the range of 10 to 200 nM.
Turning to `Nc1ncnc2c3c(n(-c4ccc(NC(=O)Cc5cccc(Cl)c5F)cc4)c12)CCC3`, the 50% inhibitory concentration (IC50) in assay [1] was below 10 nM; in assay [2], above 200 nM.
In the case of `COc1cc(-n2c3c(c4ncnc(N)c42)CCC3)ccc1CC(=O)Nc1cnc(C(F)(F)F)nc1`, in assay [1], the IC50 lay within 10 to 200 nM.
For the compound `COc1cc(CC(=O)Nc2ccc(-n3c4c(c5ncnc(N)c53)CCC4)cc2)cc(OC)c1`, the IC50 in assay [1] and in assay [2] was above 200 nM in each case.
With `Nc1ncnc2c3c(n(-c4ccc(NC(=O)Cc5ccc(Cl)cc5)cc4)c12)CCC3`, the IC50 in assay [1] was below 10 nM; in assay [2], above 200 nM.
The corresponding values for `Nc1ncnc2c3c(n(-c4ccc(NC(=O)Cc5cc(Cl)ccc5F)cc4)c12)CCC3` are below 10 nM and above 200 nM.
On to `Nc1ncnc2c3c(n(-c4ccc(NC(=O)Cc5cccc(O)c5)cc4)c12)CCC3`, for which the IC50 in assay [2] was above 200 nM.
As to `Nc1ncnc2c3c(n(-c4ccc(NC(=O)CC5CCNCC5)cc4)c12)CCC3`, the IC50 in assay [1] and in assay [2] was above 200 nM throughout.
Take `COc1cc(-n2c3c(c4ncnc(N)c42)CCC3)ccc1CC(=O)Nc1nc(C(F)(F)F)cs1`: the IC50 in assay [1] is below 10 nM.
Regarding `Nc1ncnc2c3c(n(-c4ccc(NC(=O)Cc5ccc(F)cc5C(F)(F)F)cc4)c12)CCC3`, the concentration for half-maximal inhibition (IC50) in assay [1] is below 10 nM; in assay [2], above 200 nM.
As to `Nc1ncnc2c3c(n(-c4ccc(NC(=O)Cc5ccn(C(F)F)n5)cc4)c12)COC3`, the concentration for half-maximal inhibition (IC50) in assay [1] is above 200 nM.
The same measure, in the same setting: the value for `COc1cc(-n2c3c(c4ncnc(N)c42)COC3)ccc1CC(=O)Nc1ccc(C(F)(F)F)nc1` was below 10 nM.
As to `COc1cc(-n2c3c(c4ncnc(N)c42)CCC3)ccc1CC(=O)Nc1cc(C(F)(F)F)cnn1`, in assay [1], the IC50 was below 10 nM.
In the case of `COc1cc(-n2c3c(c4ncnc(N)c42)CCC3)ccc1NC(=O)Cc1ccc(C2(O)COC2)cc1`, the IC50 in assay [1] is below 10 nM.
As to `Nc1ncnc2c3c(n(-c4ccc(NC(=O)Cc5cccc(OC(F)F)c5)cc4)c12)CCC3`, the IC50 in assay [1] is 10 to 200 nM; in assay [2], above 200 nM.
As to `Nc1ncnc2c3c(n(-c4ccc(NC(=O)Cc5cc(C(F)(F)F)ccn5)cc4)c12)CCC3`, the IC50 in assay [1] was 10 to 200 nM; in assay [2] it was above 200 nM.
As for `COc1cc(-n2c3c(c4ncnc(N)c42)CCC3)ccc1CC(=O)Nc1ccn(C)n1`, in assay [1], the IC50 is above 200 nM.
For the compound `COc1cc(NC(=O)Cc2ccc(-n3c4c(c5ncnc(N)c53)CCC4)cc2OC)cc(C(F)(F)F)c1`, in assay [1], the IC50 is below 10 nM.
With `COc1cc(-n2c3c(c4ncnc(N)c42)COC3)ccc1CC(=O)Nc1ccccc1`, in assay [1], the IC50 was above 200 nM.
As for `Nc1ncnc2c3c(n(-c4ccc(NC(=O)Cc5ccc(OC(F)(F)F)cc5)cc4)c12)CCC3`, the IC50 in assay [2] was above 200 nM.
As to `COc1cc(-n2c3c(c4ncnc(N)c42)CCC3)ccc1NC(=O)Cc1cc(C)ccc1F`, the IC50 in assay [1] is below 10 nM; in assay [2], above 200 nM.
Taken in the same sequence, the figures for `Cc1ccc(F)c(CC(=O)Nc2ccc(-n3c4c(c5ncnc(N)c53)CCC4)cc2)c1` were below 10 nM and above 200 nM.
Take `Nc1ncnc2c3c(n(-c4ccc(CC(=O)Nc5cc(C(F)(F)F)ccc5F)cc4)c12)COC3`: the IC50 in assay [1] was 10 to 200 nM; in assay [2], above 200 nM.
As for `Nc1ncnc2c3c(n(-c4ccc(NC(=O)Cc5ccc(C(F)(F)F)nc5)cc4)c12)CCC3`, the values for the IC50 in assay [1] and in assay [2] were below 10 nM and above 200 nM, respectively.
Take `Nc1ncnc2c3c(n(-c4ccc(NC(=O)Cc5ccccc5)cc4)c12)CCC3`: the IC50 is 10 to 200 nM in assay [1] and above 200 nM in assay [2].
With `COc1cc(F)c(CC(=O)Nc2ccc(-n3c4c(c5ncnc(N)c53)CCC4)cc2)c(F)c1`, the IC50 is below 10 nM in assay [1] and 10 to 200 nM in assay [2].
As for `COc1ccc(CC(=O)Nc2ccc(-n3c4c(c5ncnc(N)c53)CCC4)cc2)cc1`, the IC50 in assay [1] was below 10 nM; in assay [2] it was above 200 nM.
For the compound `COc1cc(-n2c3c(c4ncnc(N)c42)CCC3)ccc1CC(=O)Nc1ccc2nonc2c1`, in assay [1], the IC50 is below 10 nM.
Consider `COc1ccc(CC(=O)Nc2ccc(-n3c4c(c5ncnc(N)c53)CCC4)cc2)cn1`, for which the IC50 in assay [1] is below 10 nM; in assay [2] it was above 200 nM.
For `COc1ccc(CC(=O)Nc2ccc(-n3c4c(c5ncnc(N)c53)CCC4)cc2)cc1F`, the results for the IC50 in assay [1] and in assay [2] were below 10 nM and above 200 nM, respectively.
For the compound `COc1ccc(CC(=O)Nc2ccc(-n3c4c(c5ncnc(N)c53)CCC4)cc2)c(F)c1`, the IC50 is below 10 nM in assay [1] and above 200 nM in assay [2].
Regarding `Nc1ncnc2c3c(n(-c4ccc(NC(=O)Cc5ccc(Cl)c(Cl)c5)cc4)c12)CCC3`, the values for the IC50 in assay [1] and in assay [2] were below 10 nM and above 200 nM, respectively.
The corresponding values for `COc1ccc(CC(=O)Nc2ccc(-n3c4c(c5ncnc(N)c53)CCC4)cc2)nc1` are 10 to 200 nM and above 200 nM.
As for `COc1cc(-n2c3c(c4ncnc(N)c42)CCC3)ccc1CC(=O)Nc1ccnn1C`, in assay [1], the IC50 was above 200 nM.
Regarding `COc1cc(-n2c3c(c4ncnc(N)c42)CCC3)ccc1CC(=O)Nc1cnn(C(F)F)c1`, in assay [1], the 50% inhibitory concentration (IC50) is 10 to 200 nM.
For the compound `COc1cc(-n2c3c(c4ncnc(N)c42)CCC3)ccc1CC(=O)Nc1cnc(OC)c(F)c1`, in assay [1], the IC50 was below 10 nM.
For `Nc1ncnc2c3c(n(-c4ccc(NC(=O)Cc5ccccc5)c(F)c4)c12)COC3`, the IC50 in assay [1] and in assay [2] was above 200 nM each time.
For `Cc1ccc(F)c(CC(=O)Nc2ccc(-n3c4c(c5ncnc(N)c53)COC4)cc2)c1`, the IC50 in assay [1] was 10 to 200 nM; in assay [2] it was above 200 nM.
Taken in the same sequence, the figures for `Nc1ncnc2c3c(n(-c4ccc(NC(=O)Cc5ccc(F)cc5Br)cc4)c12)CCC3` were below 10 nM and above 200 nM.
Consider `Nc1ncnc2c3c(n(-c4ccc(NC(=O)Cc5cccc(Cl)c5)cc4)c12)CCC3`, for which the figures for the IC50 in assay [1] and in assay [2] were below 10 nM and above 200 nM, respectively.
For the compound `COc1ccc(NC(=O)Cc2ccc(-n3c4c(c5ncnc(N)c53)CCC4)cc2OC)nn1`, in assay [1], the IC50 is below 10 nM.
On to `COc1cc(-n2c3c(c4ncnc(N)c42)CCC3)ccc1CC(=O)Nc1ccc(C(C)(C)OC)nc1`, for which, in assay [1], the IC50 was below 10 nM.
For the compound `Nc1ncnc2c3c(n(-c4ccc(NC(=O)c5c[nH]c6ccccc56)cc4)c12)CCC3`, the IC50 in assay [1] and in assay [2] was above 200 nM throughout.
Consider `Nc1ncnc2c3c(n(-c4ccc(NC(=O)Cc5cc(C(F)(F)F)ccc5F)c(F)c4)c12)COC3`, for which the IC50 is 10 to 200 nM in assay [1] and above 200 nM in assay [2].
Turning to `COc1ccc(CC(=O)Nc2ccc(-n3c4c(c5ncnc(N)c53)CCC4)cc2F)c(F)c1`, the IC50 was 10 to 200 nM in assay [1] and above 200 nM in assay [2].
For `COc1cc(-n2c3c(c4ncnc(N)c42)CCC3)ccc1CC(=O)Nc1ccc(C(C)(C)C)cc1`, in assay [1], the IC50 was below 10 nM.
On to `Nc1ncnc2c3c(n(-c4ccc(NC(=O)Cc5ccccc5)cc4F)c12)CCC3`, for which the IC50 is 47 nM in assay [1] and above 200 nM in assay [2].
For `COc1ccc(CC(=O)Nc2ccc(-n3c4c(c5ncnc(N)c53)CCC4)cc2)cc1Br`, the IC50 in assay [1] and in assay [2] was below 10 nM throughout.
Regarding `Nc1ncnc2c3c(n(-c4ccc(NC(=O)Cc5cc(C(F)(F)F)ccc5F)c(F)c4)c12)CCC3`, the IC50 is 10 to 200 nM in assay [1] and above 200 nM in assay [2].
Regarding `CNC(=O)c1cccc(NC(=O)Cc2ccc(-n3c4c(c5ncnc(N)c53)CCC4)cc2OC)c1`, the IC50 in assay [1] lay in the range of 10 to 200 nM.
